Measured values published in patent US11986471B2, “Compounds and methods of use” (Tango Therapeutics, Inc., priority 2018, dated 2024).

How the values were obtained:
PRMT5 [1] = molecular target: T1, PRMT5 (Homo sapiens, UniProt O14744); assay: PRMT5 IC50 assay in the presence of SAM as cofactor; type: biochemical
T1 construct: purchased Viva (custom protein)
How it was run: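 Results given as IC50 (μM), from which Ki follows by dividing by 1.5 in the SAM condition or by 13.5 in the MTA condition. The ratio of SAM Ki to MTA Ki indicates MTA-cooperative preference.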

PRMT5 [2] = molecular target: T1, PRMT5; assay: PRMT5 IC50 assay with no cofactor; type: biochemical; conditions: read-out: No Co-factor IC50
How it was run: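 Each compound is tested on PRMT5 in the presence of SAM, of MTA, and without any cofactor. Ki values are then back-calculated using fixed factors of 1.5 (SAM) and 13.5 (MTA), and the two Ki values are compared as a ratio.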

PRMT5 [3] = molecular target: T1, PRMT5; assay: PRMT5 IC50 assay in the presence of MTA as cofactor; type: biochemical; conditions: for IC50: PRMT5, MTA as cofactor; for SAM/MTA Ratio: ratio between Ki in the presence of SAM and Ki in the presence of MTA
How it was run: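 IC50 values were measured against human PRMT5 with SAM, with MTA, or with no cofactor. Ki was derived from IC50 as Ki=IC50/1.5 with SAM and Ki=IC50/13.5 with MTA, and the Ki(SAM)/Ki(MTA) ratio was then taken.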

HAP1 MTAP-intact = assay: SDMA in-cell western assay, HAP1 MTAP-intact cell line; type: cell-based; conditions: Homo sapiens
How it was run: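 IC50 values come from SDMA in-cell western staining of HAP1 cells. The MTAP-intact line carries endogenous MTAP, while its MTAP-deleted counterpart lacks MTAP entirely. A selectivity ratio of at least 3 fold marks a compound as MTAP-selective.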

HAP1 MTAP-deleted = assay: SDMA in-cell western assay, HAP1 MTAP-deleted cell line; type: cell-based; conditions: for IC50: Homo sapiens, HAP1 MTAP-deleted cell line; for MTAP Intact/Deleted Ratio: IC50 ratio HAP1 MTAP-intact / HAP1 MTAP-deleted
How it was run: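 Readout is cellular SDMA signal by in-cell western, with IC50 values derived from it. The cells are MTAP-null HAP1, matched to an isogenic MTAP-intact HAP1 line.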

T1 sequence (O14744 whole entry): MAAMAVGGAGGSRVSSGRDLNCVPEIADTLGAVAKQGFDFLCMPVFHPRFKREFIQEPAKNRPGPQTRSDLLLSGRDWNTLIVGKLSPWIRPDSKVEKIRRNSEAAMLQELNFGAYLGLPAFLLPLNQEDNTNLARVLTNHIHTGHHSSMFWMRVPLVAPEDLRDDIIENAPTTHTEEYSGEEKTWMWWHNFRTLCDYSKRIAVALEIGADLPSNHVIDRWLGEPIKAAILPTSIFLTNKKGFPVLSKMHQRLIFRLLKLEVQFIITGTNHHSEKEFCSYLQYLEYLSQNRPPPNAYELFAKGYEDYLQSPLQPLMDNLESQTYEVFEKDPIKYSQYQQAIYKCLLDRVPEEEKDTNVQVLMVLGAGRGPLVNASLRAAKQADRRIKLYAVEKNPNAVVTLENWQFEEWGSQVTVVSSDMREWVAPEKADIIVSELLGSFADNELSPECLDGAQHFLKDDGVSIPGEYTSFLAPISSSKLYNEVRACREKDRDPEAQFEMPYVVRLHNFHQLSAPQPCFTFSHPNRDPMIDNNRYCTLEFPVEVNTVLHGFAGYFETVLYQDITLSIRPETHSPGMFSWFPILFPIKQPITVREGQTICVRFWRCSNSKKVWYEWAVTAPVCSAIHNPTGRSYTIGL
T1 sequence (Q9BQA1 whole entry partner): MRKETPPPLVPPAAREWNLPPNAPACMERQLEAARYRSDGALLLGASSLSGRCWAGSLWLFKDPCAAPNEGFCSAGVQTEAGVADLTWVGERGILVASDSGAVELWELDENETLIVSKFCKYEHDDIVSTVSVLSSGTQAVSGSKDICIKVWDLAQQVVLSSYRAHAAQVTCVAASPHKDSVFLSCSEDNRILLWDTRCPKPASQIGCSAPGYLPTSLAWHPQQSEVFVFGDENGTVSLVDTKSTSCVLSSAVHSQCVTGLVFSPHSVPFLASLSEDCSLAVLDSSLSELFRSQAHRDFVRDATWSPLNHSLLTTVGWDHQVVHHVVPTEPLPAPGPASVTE

Row | Compound | IC50 (PRMT5 [1]) [nM] | IC50 (PRMT5 [2]) [nM] | IC50 (PRMT5 [3]) [nM] | IC50 (HAP1 MTAP-intact) [nM] | IC50 (HAP1 MTAP-deleted) [nM] | SAM/MTA Ratio (PRMT5 [3]) | MTAP Intact/Deleted Ratio (HAP1 MTAP-deleted)
1 | CC(C)(C)N1CCN(c2nc(NC3COC3)cc(C(=O)NC[C@H](O)CN3CCc4cc(OCc5cnco5)ccc4C3)n2)CC1 [Compound 373] | 50 to 500 | 500 to 5000 | 50 to 500 | ≥ 10000 | 1000 to 10000 | A (a Ki ratio greater than or equal to 10 fold between the Ki in the presence of SAM and the Ki in the presence of MTA) | B* (an IC50 ratio greater than or equal to 3 fold but lower than 10 fold between the IC50 in the HAP1 MTAP-intact cell line and the HAP1 MTAP-deleted cell line)
2 | Cc1c(OCc2cnco2)ccc2c1CCN(C[C@@H](O)CNC(=O)c1cc(NC3CCC3)ncn1)C2 [Compound 376, 6-(cyclobutylamino)-N-[(2S)-2-hydroxy-3-{5-methyl-6-[(1,3-oxazol-5-yl)methoxy]-1,2,3,4-tetrahydroisoquinolin-2-yl}propyl]pyrimidine-4-carboxamide] | 500 to 5000 | ≥ 5000 | 500 to 5000 | ≥ 10000 | ≥ 10000 | A (a Ki ratio greater than or equal to 10 fold between the Ki in the presence of SAM and the Ki in the presence of MTA) | C* (an IC50 ratio of less than 3 fold between the IC50 in the HAP1 MTAP-intact cell line and the HAP1 MTAP-deleted cell line)
3 | O=C(NC[C@H](O)CN1CCc2cc(OCc3cnco3)ccc2C1)c1cc(NC2CCC2)nc(N2CCN(C(=O)C3CC3)CC2)c1 [Compound 378, (S)-2-(cyclobutylamino)-6-(4-(cyclopropanecarbonyl)piperazin-1-yl)-N-(2-hydroxy-3-(6-(oxazol-5-ylmethoxy)-3N-dihydroisoquinolin-2(1H)-yl)propyl)isonicotinamide] | 50 to 500 | 500 to 5000 | 50 to 500 | < 1000 | < 1000 | A (a Ki ratio greater than or equal to 10 fold between the Ki in the presence of SAM and the Ki in the presence of MTA) | C* (an IC50 ratio of less than 3 fold between the IC50 in the HAP1 MTAP-intact cell line and the HAP1 MTAP-deleted cell line)
4 | Cc1ncoc1COc1ccc2c(c1Br)CCN(C[C@@H](O)CNC(=O)c1cccc(NC3COC3)c1)C2 [Compound 381, (S)—N-(3-(5-bromo-6-((4-methyloxazol-5-yl)methoxy)-3,4-dihydroisoquinolin-2(1H)-yl)-2-hydroxypropyl)-3-(oxetan-3-ylamino)benzamide] | 500 to 5000 | ≥ 5000 | 500 to 5000 | ≥ 10000 | ≥ 10000 | A (a Ki ratio greater than or equal to 10 fold between the Ki in the presence of SAM and the Ki in the presence of MTA) | C* (an IC50 ratio of less than 3 fold between the IC50 in the HAP1 MTAP-intact cell line and the HAP1 MTAP-deleted cell line)
5 | Cc1c(OCc2cnco2)ccc2c1CCN(C[C@@H](O)CNC(=O)c1ccnc(NC3CCN(S(C)(=O)=O)CC3)c1)C2 [Compound 386, (S)—N-(2-hydroxy-3-(5-methyl-6-(oxazol-5-ylmethoxy)-3N-dihydroisoquinolin-2(1H)-yl)propyl)-2-((1-(methylsulfonyl)piperidin-4-yl)amino)isonicotinamide] | 50 to 500 | 500 to 5000 | 50 to 500 | ≥ 10000 | 1000 to 10000 | A (a Ki ratio greater than or equal to 10 fold between the Ki in the presence of SAM and the Ki in the presence of MTA) | C* (an IC50 ratio of less than 3 fold between the IC50 in the HAP1 MTAP-intact cell line and the HAP1 MTAP-deleted cell line)

More lines, main results first:

Row | IC50 (PRMT5 [1]) [nM] | IC50 (PRMT5 [2]) [nM] | IC50 (PRMT5 [3]) [nM] | IC50 (HAP1 MTAP-intact) [nM] | IC50 (HAP1 MTAP-deleted) [nM] | Compound | SAM/MTA Ratio (PRMT5 [3]) | MTAP Intact/Deleted Ratio (HAP1 MTAP-deleted)
6 | 50 to 500 | ≥ 5000 | 50 to 500 | 1000 to 10000 | < 1000 | Cc1ncoc1COc1ccc2c(c1)CCN(C[C@@H](O)CNC(=O)c1cc(NC3CCC3)ncn1)C2 [Compound 374, 6-(cyclobutylamino)-N-[(2S)-2-hydroxy-3-{6-[(4-methyl-1,3-oxazol-5-yl)methoxy]-1,2,3,4-tetrahydroisoquinolin-2-yl}propyl]pyrimidine-4-carboxamide] | A (a Ki ratio greater than or equal to 10 fold between the Ki in the presence of SAM and the Ki in the presence of MTA) | C* (an IC50 ratio of less than 3 fold between the IC50 in the HAP1 MTAP-intact cell line and the HAP1 MTAP-deleted cell line)
7 | 500 to 5000 | ≥ 5000 | 500 to 5000 | ≥ 10000 | ≥ 10000 | Cc1ncoc1COc1ccc2c(c1C)CCN(C[C@@H](O)CNC(=O)c1cccc(NC3COC3)c1)C2 [Compound 375, N-[(2S)-2-hydroxy-3-{5-methyl-6-[(4-methyl-1,3-oxazol-5-yl)methoxy]-1,2,3,4-tetrahydroisoquinolin-2-yl}propyl]-3-[(oxetan-3-yl)amino]benzamide] | A (a Ki ratio greater than or equal to 10 fold between the Ki in the presence of SAM and the Ki in the presence of MTA) | C* (an IC50 ratio of less than 3 fold between the IC50 in the HAP1 MTAP-intact cell line and the HAP1 MTAP-deleted cell line)
8 | 50 to 500 | 500 to 5000 | 50 to 500 | < 1000 | < 1000 | CC(=O)N1CC(Nc2cc(C(=O)NC[C@H](O)CN3CCc4cc(OCc5cnco5)ccc4C3)nc(C(C)(C)C)n2)C1 [Compound 379, (S)-6-((1-acetylazetidin-3-yl)amino)-2-(tert-butyl)-N-(2-hydroxy-3-(6-(oxazol-5-ylmethoxy)-3,4-dihydroisoquinolin-2(1H)-yl)propyl)pyrimidine-4-carboxamide] | A (a Ki ratio greater than or equal to 10 fold between the Ki in the presence of SAM and the Ki in the presence of MTA) | C* (an IC50 ratio of less than 3 fold between the IC50 in the HAP1 MTAP-intact cell line and the HAP1 MTAP-deleted cell line)
9 | 50 to 500 | 500 to 5000 | 50 to 500 | ≥ 10000 | ≥ 10000 | CC(=O)N1CC(Nc2cc(C(=O)NC[C@H](O)CN3CCc4c(ccc(OCc5cnco5)c4Cl)C3)ccn2)C1 [Compound 380, (S)-2-((1-acetylazetidin-3-yl)amino)-N-(3-(5-chloro-6-(oxazol-5-ylmethoxy)-3,4-dihydroisoquinolin-2(1H)-yl)-2-hydroxypropyl)isonicotinamide] | A (a Ki ratio greater than or equal to 10 fold between the Ki in the presence of SAM and the Ki in the presence of MTA) | C* (an IC50 ratio of less than 3 fold between the IC50 in the HAP1 MTAP-intact cell line and the HAP1 MTAP-deleted cell line)
10 | 50 to 500 | 500 to 5000 | 50 to 500 | ≥ 10000 | ≥ 10000 | O=C(NC[C@H](O)CN1CCc2c(ccc(OCc3cnco3)c2Cl)C1)c1ccnc(NC2CCCC2)c1 [Compound 382, (S)—N-(3-(5-chloro-6-(oxazol-5-ylmethoxy)-3,4-dihydroisoquinolin-2(1H)-yl)-2-hydroxypropyl)-2-(cxclopentylamino)isonicotinamide] | A (a Ki ratio greater than or equal to 10 fold between the Ki in the presence of SAM and the Ki in the presence of MTA) | C* (an IC50 ratio of less than 3 fold between the IC50 in the HAP1 MTAP-intact cell line and the HAP1 MTAP-deleted cell line)
11 | 500 to 5000 | ≥ 5000 | 500 to 5000 | ≥ 10000 | ≥ 10000 | O=C(NC[C@H](O)CN1CCc2cc(OCc3cnco3)ccc2C1)c1cncc(NC2CCOCC2)c1 [Compound 383] | A (a Ki ratio greater than or equal to 10 fold between the Ki in the presence of SAM and the Ki in the presence of MTA) | C* (an IC50 ratio of less than 3 fold between the IC50 in the HAP1 MTAP-intact cell line and the HAP1 MTAP-deleted cell line)
12 | 50 to 500 | 500 to 5000 | 50 to 500 | < 1000 | < 1000 | Cc1ncoc1COc1ccc2c(c1)CCN(C[C@@H](O)CNC(=O)c1cc(NC3CCC3)nc(N3CCOCC3)c1)C2 [Compound 384, 2-(cyclobutylamino)-N-[(2S)-2-hydroxy-3-{6-[(4-methyl-1,3-oxazol-5-yl)methoxy]-1,2,3,4-tetrahydroisoquinolin-2-yl}propyl]-6-(morpholin-4-yl)pyridine-4-carboxamide] | A (a Ki ratio greater than or equal to 10 fold between the Ki in the presence of SAM and the Ki in the presence of MTA) | B* (an IC50 ratio greater than or equal to 3 fold but lower than 10 fold between the IC50 in the HAP1 MTAP-intact cell line and the HAP1 MTAP-deleted cell line)
13 | 50 to 500 | ≥ 5000 | 50 to 500 | ≥ 10000 | 1000 to 10000 | CCN1CCN(c2nc(NC3COC3)cc(C(=O)NC[C@H](O)CN3CCc4c(ccc(OCc5ocnc5C)c4C)C3)n2)CC1 [Compound 385, 2-(4-ethylpiperazin-1-yl)-N-[(2S)-2-hydroxy-3-{5-methyl-6-[(4-methyl-1,3-oxazol-5-yl)methoxy]-1,2,3,4-tetrahydroisoquinolin-2-yl}propyl]-6-[(oxetan-3-yl)amino]pyrimidine-4-carboxamide] | A (a Ki ratio greater than or equal to 10 fold between the Ki in the presence of SAM and the Ki in the presence of MTA) | C* (an IC50 ratio of less than 3 fold between the IC50 in the HAP1 MTAP-intact cell line and the HAP1 MTAP-deleted cell line)
